Measured values: patent publication US20170355708A1, “POTASSIUM CHANNEL MODULATORS” (Cadent Therapeutics, Inc., priority 2016, published 2017)

Molecular target: T1, hSK2 channels (Homo sapiens, UniProt P0DP23+Q9H2S1)
T1 construct: expressed in transfected cells; host or cells: HEK293
Assay: Whole-cell patch-clamp recording of SK2 channel current (SC100)
Type: cell-based
Settings: Stimulating Concentration required for increasing the baseline current by 100%, HEK293 cells expressing hSK2; for SC100 (μM): Table 4; for SC100 uM: Table 3
Description: The biological activity of certain compounds were determined as follows. The ionic current through small-conductance Ca^2+-activated K^+ channels (SK channels, subtype 2) is recorded using the whole-cell configuration of the patch-clamp technique in a classic patch-clamp set-up using HEK293 tissue culture cells expressing hSK2 channels as described in Kasumu et. al., Chemistry & Biology 19, 1340-1353, Oct. 26, 2012.
The SC100 value determined is defined as the Stimulating Concentration required for increasing the baseline current by 100%.

SMILES | SC100 (μM) | SC100 uM
Cc1cccc(-c2nc(Nc3ccc(F)cc3)cc(N3CCOCC3)n2)n1 [NSSy6907, N-(4-fluorophenyl)-2-(6-methylpyridin-2-yl)-6-morpholinopyrimidin-4-amine] | ++ (++ means 200 nM-1000 nM) | –
Cc1cc(C)n(-c2nc(Nc3ccc(F)c(F)c3)cc(NC(C)C(N)=O)n2)n1 (centres unmarked) [Compound 126, 2-((6-((3,4-difluorophenyl)amino)-2-(3,5-dimethyl-1H-pyrazol-1-yl)pyrimidin-4-yl)amino)propanamide] | – | ++ (++ means 200 nM-1000 nM)
COC(C)c1cc(Nc2ccc(F)cc2F)nc(-c2nc(C)cs2)n1 (centres unmarked) [IN11059-067-P1, N-(2,4-difluorophenyl)-6-(1-methoxyethyl)-2-(4-methylthiazol-2-yl) pyrimidin-4-amine] | + (+ means >1 uM) | –
Fc1ccc(Nc2ccnc(-n3ccc(C4CC4)n3)n2)cc1 [IN11166-018-P1, 2-(3-cyclopropyl-1H-pyrazol-1-yl)-N-(4-fluorophenyl) pyrimidin-4-amine] | + (+ means >1 uM) | –
Cc1cc(C)n(Cc2cc(Nc3ccc(F)cc3)nc(-n3ccc(CF)n3)c2)n1 [Compound 170, 4-((3,5-dimethyl-1H-pyrazol-1-yl)methyl)-6-(3-(fluoromethyl)-1H-pyrazol-1-yl)-N-(4-fluorophenyl)pyridin-2-amine] | – | ++ (++ means 200 nM-1000 nM)
Cc1cc(Nc2ccc(Cl)cc2)nc(-n2ccc(C(C)(C)O)n2)c1 [Compound 145, 2-(1-(6-((4-chlorophenyl)amino)-4-methylpyridin-2-yl)-1H-pyrazol-3-yl)propan-2-ol] | – | ++ (++ means 200 nM-1000 nM)
Cc1cc(C)n(-c2cc(N3CC4(COC4)C3)nc(Nc3ccc(F)cc3F)n2)n1 [Compound 107, N-(2,4-difluorophenyl)-4-(3,5-dimethyl-1H-pyrazol-1-yl)-6-(2-oxa-6-azaspiro[3.3]heptan-6-yl)pyrimidin-2-amine] | – | + (+ means >1 uM)
Cc1ccn(-c2cc(CN3CCCC3=O)cc(Nc3ccc(Cl)cc3)n2)n1 [NSSy5701, 1-((2-((4-chlorophenyl)amino)-6-(3-methyl-1H-pyrazol-1-yl)pyridin-4-yl)methyl) pyrrolidin-2-one] | +++ (+++ means <200 nM) | –
Cc1cc(C)n(-c2nc(Nc3ccc(Cl)cc3)nc3c2ncn3CC#N)n1 [Compound 130, 2-(2-((4-chlorophenyl)amino)-6-(3,5-dimethyl-1H-pyrazol-1-yl)-9H-purin-9-yl)acetonitrile] | – | ++ (++ means 200 nM-1000 nM)
CC(C)(O)c1ccn(-c2nc(Nc3ccc(F)cc3)cc(N3CCOCC3)n2)n1 [Compound 148, 2-(1-(4-((4-fluorophenyl)amino)-6-morpholinopyrimidin-2-yl)-1H-pyrazol-3-yl)propan-2-ol] | – | + (+ means >1 uM)
CC(=O)NCc1cc(Nc2ccc(Cl)cc2)nc(-n2ccc(CF)n2)c1 [Compound 164, N-((2-((4-chlorophenyl)amino)-6-(3-(fluoromethyl)-1H-pyrazol-1-yl)pyridin-4-yl)methyl)acetamide] | – | +++ (+++ means <200 nM)
Cc1cc(C)n(-c2nc(Nc3ccc(F)c(F)c3)cc(NC3C4CN(Cc5ccccc5)CC43)n2)n1 (centres unmarked) [Compound 134, N4-(3-benzyl-3-azabicyclo[3.1.0]hexan-6-yl)-N6-(3,4-difluorophenyl)-2-(3,5-dimethyl-1H-pyrazol-1-yl)pyrimidine-4,6-diamine] | – | ++ (++ means 200 nM-1000 nM)
Cc1cc(C)n(-c2cc(N3CCNC(C(N)=O)C3)nc(Nc3ccc(F)cc3F)n2)n1 (centres unmarked) [Compound 110, 4-(2-((2,4-difluorophenyl)amino)-6-(3,5-dimethyl-1H-pyrazol-1-yl)pyrimidin-4-yl)piperazine-2-carboxamide] | – | ++ (++ means 200 nM-1000 nM)
Cc1ccn(-c2nc(Nc3c(C)cccc3Cl)cc(C(C)O)n2)n1 (centres unmarked) [IN10864-081-P1] | + (+ means >1 uM) | –
Cc1cc(C)n(-c2nc(Nc3ccc(F)cc3)cc(C(C)O)n2)n1 (centres unmarked) [IN10973-006-P1] | ++ (++ means 200 nM-1000 nM) | –
Cc1cn(-c2nc(Nc3ccc(F)cc3)cc(OC3COC3)n2)nc1CF [Compound 163, 2-(3-(fluoromethyl)-4-methyl-1H-pyrazol-1-yl)-N-(4-fluorophenyl)-6-(oxetan-3-yloxy)pyrimidin-4-amine] | – | ++ (++ means 200 nM-1000 nM)
Cc1cc(C)n(-c2nc(Nc3cccc(C(F)(F)F)c3)cc(C(C)O)n2)n1 (centres unmarked) [IN10973-007-P1] | +++ (+++ means <200 nM) | –
Cc1cc(C)n(-c2nc(Nc3ccc(Cl)cc3)nc3c2ncn3CCN)n1 [Compound 133, 9-(2-aminoethyl)-N-(4-chlorophenyl)-6-(3,5-dimethyl-1H-pyrazol-1-yl)-9H-purin-2-amine] | – | + (+ means >1 uM)

SMILES | SC100 (μM) | SC100 uM
CC(F)c1ccn(-c2nc(Nc3ccc(Cl)cc3)cc(N3CC4(COC4)C3)n2)n1 (centres unmarked) [Compound 152, N-(4-chlorophenyl)-2-(3-(1-fluoroethyl)-1H-pyrazol-1-yl)-6-(2-oxa-6-azaspiro[3.3]heptan-6-yl)pyrimidin-4-amine] | – | +++ (+++ means <200 nM)
Cc1cc(C)n(-c2nc(Nc3ccc(Cl)cc3)cc(NC(C)C(N)=O)n2)n1 (centres unmarked) [Compound 114, 2-((6-((4-chlorophenyl)amino)-2-(3,5-dimethyl-1H-pyrazol-1-yl)pyrimidin-4-yl)amino)propanamide] | – | ++ (++ means 200 nM-1000 nM)
Cc1cc(C)n(-c2cc(N3CC4(COC4)C3)nc(Nc3ccc(F)c(F)c3)n2)n1 [Compound 108, N-(3,4-difluorophenyl)-4-(3,5-dimethyl-1H-pyrazol-1-yl)-6-(2-oxa-6-azaspiro[3.3]heptan-6-yl)pyrimidin-2-amine] | – | ++ (++ means 200 nM-1000 nM)
Cc1csc(-c2nc(Nc3ccc(F)cc3)cc(C(C)O)n2)n1 (centres unmarked) [IN10880-091-P1, 1-(6-((4-fluorophenyl)amino)-2-(4-methylthiazol-2-yl)pyrimidin-4-yl)ethan-1-ol] | ++ (++ means 200 nM-1000 nM) | –
CC(=O)NCc1cc(Nc2ccc(Cl)cc2)nc(-n2ccc(C(F)F)n2)c1 [Compound 165, N-((2-((4-chlorophenyl)amino)-6-(3-(difluoromethyl)-1H-pyrazol-1-yl)pyridin-4-yl)methyl)acetamide] | – | ++ (++ means 200 nM-1000 nM)
CC(C)(O)c1ccn(-c2nc(Nc3ccc(Cl)cc3)cc(N3CC4(COC4)C3)n2)n1 [Compound 147, 2-(1-(4-((4-chlorophenyl)amino)-6-(2-oxa-6-azaspiro [3.3]heptan-6-yl)pyrimidin-2-yl)-1H-pyrazol-3-yl)propan-2-ol] | – | ++ (++ means 200 nM-1000 nM)
COc1cc(Nc2ccc(F)cc2)nc(-c2cccc(C)n2)n1 [NSSy6908] | + (+ means >1 uM) | –
CC(=O)N1CCN(c2cc(Nc3ccc(F)c(F)c3)nc(-n3nc(C)cc3C)n2)CC1 [Compound 100, 1-(4-(6-((3,4-difluorophenyl)amino)-2-(3,5-dimethyl-1H-pyrazol-1-yl)pyrimidin-4-yl)piperazin-1-yl)ethan-1-one] | – | +++ (+++ means <200 nM)
CC(=O)N1CCN(c2cc(Nc3ccc(F)cc3F)nc(-n3nc(C)cc3C)n2)CC1 [Compound 105, 1-(4-(6-((2,4-difluorophenyl)amino)-2-(3,5-dimethyl-1H-pyrazol-1-yl)pyrimidin-4-yl)piperazin-1-yl)ethan-1-one] | – | ++ (++ means 200 nM-1000 nM)
Cc1cc(Nc2ccc(F)cc2)nc(-c2ccc(C)[nH]2)n1 [IN11196-053-P1, N-(4-fluorophenyl)-6-methyl-2-(5-methyl-1H-pyrrol-2-yl)pyrimidin-4-amine] | + (+ means >1 uM) | –
Cc1cc(C)n(-c2nc(Nc3ccc(F)cc3F)cc(N3CCN[C@H](C(N)=O)C3)n2)n1 (single isomer, unassigned) [Compound 128, (+)-4-(6-((2,4-difluorophenyl)amino)-2-(3,5-dimethyl-1H-pyrazol-1-yl)pyrimidin-4-yl)piperazine-2-carboxamide] | – | + (+ means >1 uM)
CC(=O)NCc1cc(Nc2ccc(F)cc2)nc(-n2cc(C)c(CO)n2)c1 [Compound 166, N-((2-((4-fluorophenyl)amino)-6-(3-(hydroxymethyl)-4-methyl-1H-pyrazol-1-yl)pyridin-4-yl)methyl)acetamide] | – | + (+ means >1 uM)
Cc1cc(C)n(-c2nc(Nc3ccc(Cl)cc3)nc3c2ncn3C(C)C)n1 [Compound 118, N-(4-chlorophenyl)-6-(3,5-dimethyl-1H-pyrazol-1-yl)-9-isopropyl-9H-purin-2-amine] | – | +++ (+++ means <200 nM)
Cc1cc(C)n(-c2nc(Nc3ccc(F)c(F)c3)cc(N3CCO[C@@H](CO)C3)n2)n1 (single isomer, unassigned) [Compound 121, (+)-(4-(6-((3,4-difluorophenyl)amino)-2-(3,5-dimethyl-1H-pyrazol-1-yl)pyrimidin-4-yl)morpholin-2-yl) methanol] | – | +++ (+++ means <200 nM)
CC(=O)NCc1cc(Nc2ccc(F)cc2)nc(-n2cc(C)c(C(C)O)n2)c1 (centres unmarked) [Compound 167, N-((2-((4-fluorophenyl)amino)-6-(3-(1-hydroxyethyl)-4-methyl-1H-pyrazol-1-yl)pyridin-4-yl)methyl)acetamide] | – | ++ (++ means 200 nM-1000 nM)
Cc1cc(Nc2ccc(F)cc2)nc(-n2ccc(C(C)O)n2)n1 (centres unmarked) [Compound 140, 1-(1-(4-((4-fluorophenyl)amino)-6-methylpyrimidin-2-yl)-1H-pyrazol-3-yl)ethan-1-ol] | – | + (+ means >1 uM)
CC(=O)NCc1cc(Nc2ccc(F)cc2)nc(-n2ccc(CF)n2)c1 [Compound 159, N-((2-(3-(fluoromethyl)-1H-pyrazol-1-yl)-6-((4-fluorophenyl)amino)pyridin-4-yl)methyl)acetamide] | – | +++ (+++ means <200 nM)
